In ChEMBL document CHEMBL3817755, “Design, synthesis and biological evaluation of indazolepyrimidine based derivatives as anticancer agents with anti-angiogenic and antiproliferative activities” (Medchemcomm, 2016):

Tests used:
Format in all cases: functional
CCRF-CEM = assay: Growth inhibition of human CCRF-CEM cells at 10 uM after 48 hrs by SRB assay; settings: read-out: GI
MDA-MB-435 = assay: Growth inhibition of human MDA-MB-435 cells at 10 uM after 48 hrs by SRB assay; settings: MDA-MB-435, 48 h, read-out: GI
HT-29 = assay: Growth inhibition of human HT-29 cells at 10 uM after 48 hrs by SRB assay; settings: HT-29, 48 h, read-out: GI
Malme-3M = assay: Growth inhibition of human MALME-3M cells at 10 uM after 48 hrs by SRB assay; settings: read-out: GI
SN12C = assay: Growth inhibition of human SN12C cells at 10 uM after 48 hrs by SRB assay; settings: read-out: GI
NCI-H226 = assay: Growth inhibition of human NCI-H226 cells at 10 uM after 48 hrs by SRB assay; settings: NCI-H226, 48 h, read-out: GI
NCI-H23 = assay: Growth inhibition of human NCI-H23 cells at 10 uM after 48 hrs by SRB assay; settings: NCI-H23, 48 h, read-out: GI
M14 = assay: Growth inhibition of human M14 cells at 10 uM after 48 hrs by SRB assay; settings: M14, 48 h, read-out: GI
[1] = Growth inhibition of human HCC2998 cells at 10 uM after 48 hrs by SRB assay; settings: HCC 2998, 48 h, read-out: GI
[2] = Growth inhibition of human HCT15 cells at 10 uM after 48 hrs by SRB assay; settings: HCT-15, 48 h, read-out: GI
[3] = Growth inhibition of human SNB19 cells at 10 uM after 48 hrs by SRB assay; settings: SNB-19, 48 h, read-out: GI
NCI-H522 = assay: Growth inhibition of human NCI-H522 cells at 10 uM after 48 hrs by SRB assay; settings: NCI-H522, 48 h, read-out: GI
T47D = assay: Growth inhibition of human T47D cells at 10 uM after 48 hrs by SRB assay; settings: read-out: GI
[4] = Growth inhibition of human OVCAR3 cells at 10 uM after 48 hrs by SRB assay; settings: OVCAR-3, 48 h, read-out: GI
[5] = Growth inhibition of human MOLT4 cells at 10 uM after 48 hrs by SRB assay; settings: MOLT-4, 48 h, read-out: GI
[6] = Growth inhibition of human SKOV3 cells at 10 uM after 48 hrs by SRB assay; settings: SK-OV-3, 48 h, read-out: GI
[7] = Growth inhibition of human UACC62 cells at 10 uM after 48 hrs by SRB assay; settings: UACC-62, 48 h, read-out: GI
[8] = Growth inhibition of human COLO205 cells at 10 uM after 48 hrs by SRB assay; settings: COLO 205, 48 h, read-out: GI
[9] = Growth inhibition of human HOP62 cells at 10 uM after 48 hrs by SRB assay; settings: HOP-62, 48 h, read-out: GI
[10] = Growth inhibition of human IGROV1 cells at 10 uM after 48 hrs by SRB assay; settings: IGROV-1, 48 h, read-out: GI
[11] = Growth inhibition of human LOXIMVI cells at 10 uM after 48 hrs by SRB assay; settings: LOX IMVI, read-out: GI
[12] = Growth inhibition of human RPMI8226 cells at 10 uM after 48 hrs by SRB assay; settings: RPMI-8226, 48 h, read-out: GI
[13] = Growth inhibition of human DU145 cells at 10 uM after 48 hrs by SRB assay; settings: DU-145, 48 h, read-out: GI
MDA-MB-468 = assay: Growth inhibition of human MDA-MB-468 cells at 10 uM after 48 hrs by SRB assay; settings: MDA-MB-468, 48 h, read-out: GI
NCI-H460 = assay: Growth inhibition of human NCI-H460 cells at 10 uM after 48 hrs by SRB assay; settings: NCI-H460, 48 h, read-out: GI
SK-MEL-5 = assay: Growth inhibition of human SK-MEL-5 cells at 10 uM after 48 hrs by SRB assay; settings: SK-MEL-5, 48 h, read-out: GI
[14] = Growth inhibition of human SW620 cells at 10 uM after 48 hrs by SRB assay; settings: SW-620, 48 h, read-out: GI
786-0 = assay: Growth inhibition of human 786-0 cells at 10 uM after 48 hrs by SRB assay; settings: 786-0, 48 h, read-out: GI
[15] = Growth inhibition of human PC3 cells at 10 uM after 48 hrs by SRB assay; settings: PC-3, 48 h, read-out: GI
[16] = Growth inhibition of human SF268 cells at 10 uM after 48 hrs by SRB assay; settings: SF-268, 48 h, read-out: GI
[17] = Growth inhibition of human SNB75 cells at 10 uM after 48 hrs by SRB assay; settings: SNB-75, 48 h, read-out: GI
[18] = Growth inhibition of human UO31 cells at 10 uM after 48 hrs by SRB assay; settings: UO-31, 48 h, read-out: GI
A498 = assay: Growth inhibition of human A498 cells at 10 uM after 48 hrs by SRB assay; settings: A498, 48 h, read-out: GI
[19] = Growth inhibition of human HOP92 cells at 10 uM after 48 hrs by SRB assay; settings: HOP-92, 48 h, read-out: GI
[20] = Growth inhibition of human HCT116 cells at 10 uM after 48 hrs by SRB assay; settings: HCT-116, 48 h, read-out: GI
EKVX = assay: Growth inhibition of human EKVX cells at 10 uM after 48 hrs by SRB assay; settings: read-out: GI
[21] = Growth inhibition of human HL-60(TB) cells at 10 uM after 48 hrs by SRB assay; settings: HL-60, 48 h, read-out: GI
[22] = Growth inhibition of human OVCAR4 cells at 10 uM after 48 hrs by SRB assay; settings: OVCAR-4, 48 h, read-out: GI
[23] = Growth inhibition of human NCI-ADR-RES cells at 10 uM after 48 hrs by SRB assay; settings: read-out: GI
[24] = Growth inhibition of human Hs 578T cells at 10 uM after 48 hrs by SRB assay; settings: read-out: GI
ACHN = assay: Growth inhibition of human ACHN cells at 10 uM after 48 hrs by SRB assay; settings: read-out: GI
SK-MEL-2 = assay: Growth inhibition of human SK-MEL-2 cells at 10 uM after 48 hrs by SRB assay; settings: SK-MEL-2, 48 h, read-out: GI
SR = assay: Growth inhibition of human SR cells at 10 uM after 48 hrs by SRB assay; settings: read-out: GI

SMILES: NS(=O)(=O)c1ccc(Nc2nccc(Nc3ccc4[nH]ncc4c3)n2)cc1
- inhibition of growth at 10 µM (CCRF-CEM): 28%
- inhibition of growth at 10 µM (MDA-MB-435): 1%
- inhibition of growth at 10 µM (HT-29): 9%
- inhibition of growth at 10 µM (Malme-3M): -3%
- inhibition of growth at 10 µM (SN12C): 10%
- inhibition of growth at 10 µM (NCI-H226): 28%
- inhibition of growth at 10 µM (NCI-H23): 14%
- inhibition of growth at 10 µM (M14): 5%
- inhibition of growth at 10 µM [1]: -18%
- inhibition of growth at 10 µM [2]: -6%
- inhibition of growth at 10 µM [3]: 4%
- inhibition of growth at 10 µM (NCI-H522): 57%
- inhibition of growth at 10 µM (T47D): 50%
- inhibition of growth at 10 µM [4]: -10%
- inhibition of growth at 10 µM [5]: 12%
- inhibition of growth at 10 µM [6]: -4%
- inhibition of growth at 10 µM [7]: 11%
- inhibition of growth at 10 µM [8]: -4%
- inhibition of growth at 10 µM [9]: 17%
- inhibition of growth at 10 µM [10]: -3%
- inhibition of growth at 10 µM [11]: 14%
- inhibition of growth at 10 µM [12]: 16%
- inhibition of growth at 10 µM [13]: -6%
- inhibition of growth at 10 µM (MDA-MB-468): 36%
- inhibition of growth at 10 µM (NCI-H460): 1%
- inhibition of growth at 10 µM (SK-MEL-5): 11%
- inhibition of growth at 10 µM [14]: -11%
- inhibition of growth at 10 µM (786-0): -1%
- inhibition of growth at 10 µM [15]: 25%
- inhibition of growth at 10 µM [16]: 12%
- inhibition of growth at 10 µM [17]: 22%
- inhibition of growth at 10 µM [18]: 18%
- inhibition of growth at 10 µM (A498): 32%
- inhibition of growth at 10 µM [19]: 47%
- inhibition of growth at 10 µM [20]: 5%
- inhibition of growth at 10 µM (EKVX): -1%
- inhibition of growth at 10 µM [21]: 2%
- inhibition of growth at 10 µM [22]: -12%
- inhibition of growth at 10 µM [23]: -6%
- inhibition of growth at 10 µM [24]: 17%
- inhibition of growth at 10 µM (ACHN): -7%
- inhibition of growth at 10 µM (SK-MEL-2): 4%
- inhibition of growth at 10 µM (SR): 34%

SMILES: Clc1ccc(Nc2nccc(Nc3ccc4[nH]ncc4c3)n2)cc1
- inhibition of growth at 10 µM (CCRF-CEM): 95%
- inhibition of growth at 10 µM (MDA-MB-435): 44%
- inhibition of growth at 10 µM (HT-29): 83%
- inhibition of growth at 10 µM (Malme-3M): 12%
- inhibition of growth at 10 µM (SN12C): 48%
- inhibition of growth at 10 µM (NCI-H226): 72%
- inhibition of growth at 10 µM (NCI-H23): 54%
- inhibition of growth at 10 µM (M14): 56%
- inhibition of growth at 10 µM [1]: 6%
- inhibition of growth at 10 µM [2]: 60%
- inhibition of growth at 10 µM [3]: 22%
- inhibition of growth at 10 µM (NCI-H522): 79%
- inhibition of growth at 10 µM (T47D): 70%
- inhibition of growth at 10 µM [4]: 48%
- inhibition of growth at 10 µM [5]: 77%
- inhibition of growth at 10 µM [6]: 12%
- inhibition of growth at 10 µM [7]: 66%
- inhibition of growth at 10 µM [8]: 58%
- inhibition of growth at 10 µM [9]: 34%
- inhibition of growth at 10 µM [10]: 53%
- inhibition of growth at 10 µM [11]: 55%
- inhibition of growth at 10 µM [12]: 82%
- inhibition of growth at 10 µM [13]: 50%
- inhibition of growth at 10 µM (MDA-MB-468): 66%
- inhibition of growth at 10 µM (NCI-H460): 59%
- inhibition of growth at 10 µM (SK-MEL-5): 74%
- inhibition of growth at 10 µM [14]: 67%
- inhibition of growth at 10 µM (786-0): 43%
- inhibition of growth at 10 µM [15]: 75%
- inhibition of growth at 10 µM [16]: 40%
- inhibition of growth at 10 µM [17]: 32%
- inhibition of growth at 10 µM [18]: 83%
- inhibition of growth at 10 µM (A498): 61%
- inhibition of growth at 10 µM [19]: 101%
- inhibition of growth at 10 µM [20]: 61%
- inhibition of growth at 10 µM (EKVX): 33%
- inhibition of growth at 10 µM [21]: 48%
- inhibition of growth at 10 µM [22]: 51%
- inhibition of growth at 10 µM [23]: 61%
- inhibition of growth at 10 µM [24]: 38%
- inhibition of growth at 10 µM (ACHN): 53%
- inhibition of growth at 10 µM (SR): 97%
